molecular target: Wild type FGFR2 (Homo sapiens (Human), UniProt P21802); test: FGFR2 kinase assay (fluorescence-based microfluidic mobility shift assay); assay type: biochemical; settings: wild type FGFR2 0.06 nM, 100 μM ATP, 80 minutes at room temperature; class symbols
Sequence (P21802 22-821): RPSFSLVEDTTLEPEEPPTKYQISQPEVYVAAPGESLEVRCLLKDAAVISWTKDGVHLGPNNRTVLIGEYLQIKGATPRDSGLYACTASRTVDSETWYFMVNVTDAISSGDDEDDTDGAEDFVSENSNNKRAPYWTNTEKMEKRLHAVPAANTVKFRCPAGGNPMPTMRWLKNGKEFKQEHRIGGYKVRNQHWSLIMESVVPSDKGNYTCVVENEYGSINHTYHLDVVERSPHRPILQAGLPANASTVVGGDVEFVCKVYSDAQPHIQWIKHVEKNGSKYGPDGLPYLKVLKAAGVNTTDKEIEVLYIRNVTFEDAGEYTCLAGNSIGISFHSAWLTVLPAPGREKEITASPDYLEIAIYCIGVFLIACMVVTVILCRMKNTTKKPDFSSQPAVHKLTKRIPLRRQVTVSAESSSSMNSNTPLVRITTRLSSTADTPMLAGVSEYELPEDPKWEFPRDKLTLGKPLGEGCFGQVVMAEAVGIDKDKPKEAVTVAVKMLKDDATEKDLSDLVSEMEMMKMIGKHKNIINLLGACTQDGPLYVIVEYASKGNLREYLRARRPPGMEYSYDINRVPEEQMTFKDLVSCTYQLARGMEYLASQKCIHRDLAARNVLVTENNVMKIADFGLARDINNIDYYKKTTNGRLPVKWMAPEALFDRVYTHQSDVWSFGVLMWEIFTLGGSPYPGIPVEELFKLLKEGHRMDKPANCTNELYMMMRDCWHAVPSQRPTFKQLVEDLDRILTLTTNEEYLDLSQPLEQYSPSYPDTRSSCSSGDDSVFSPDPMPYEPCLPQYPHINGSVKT

SMILES	IC50 [nM]
C=CC(=O)N1C[C@@H](n2nc(C#Cc3cc4nc(C)n(CC)c4cc3Cl)c(C(N)=O)c2NC)C[C@@H]1COC [Example 33, 1-((3S,5R)-1-acryloyl-5-(methoxymethyl)pyrrolidin-3-yl)-3-((6-chloro-1-ethyl-2-methyl-1H-benzo[d]imidazol-5-yl)ethynyl)-5-(methylamino)-1H-pyrazole-4-carboxamide]	≤ 100
C=CC(=O)N1C[C@@H](n2nc(C#Cc3c(F)cc4c(nc(C)n4CC(F)(F)F)c3F)c(C(N)=O)c2NC)C[C@@H]1COC [Example 35, 1-((3S,5R)-1-acryloyl-5-(methoxymethyl)pyrrolidin-3-yl)-3-((4,6-difluoro-2-methyl-1-(2,2,2-trifluoroethyl)-1H-benzo[d]imidazol-5-yl)ethynyl)-5-(methylamino)-1H-pyrazole-4-carboxamide]	≤ 100
C=CC(=O)N1C[C@@H](n2nc(C#Cc3ccc4ncn(CC)c4c3F)c(C(N)=O)c2NC)C[C@@H]1COC [Example 36, 3-[2-(3-ethyl-4-fluoro-1,3-benzodiazol-5-yl)ethynyl]-1-[(3S,5R)-5-(methoxymethyl)-1-(prop-2-enoyl)pyrrolidin-3-yl]-5-(methylamino)pyrazole-4-carboxamide]	100 to 1000
C=CC(=O)N1C[C@@H](n2nc(C#Cc3cc4nc(C)n(CC)c4cc3F)c(C(N)=O)c2NC)C[C@@H]1COC [Example 37, 3-[2-(1-ethyl-6-fluoro-2-methyl-1,3-benzodiazol-5-yl)ethynyl]-1-[(3S,5R)-5-(methoxymethyl)-1-(Prop-2-enoyl)pyrrolidin-3-yl]-5-(methylamino)pyrazole-4-carboxamide]	≤ 100
C=CC(=O)N1C[C@@H](n2nc(C#Cc3ccc4c(nc(C)n4CC)c3Cl)c(C(N)=O)c2NC)C[C@@H]1COC [Example 38, 3-[2-(4-chloro-1-ethyl-2-methyl-1,3-benzodiazol-5-yl)ethynyl]-1-[(3S,5R)-5-(methoxymethyl)-1-(prop-2-enoyl)pyrrolidin-3-yl]-5-(methylamino)pyrazole-4-carboxamide]	≤ 100
C=CC(=O)N1C[C@@H](n2nc(C#Cc3ccc4c(n3)nc(C)n4CC)c(C(N)=O)c2NC)C[C@@H]1COC [Example 39, 3-(2-[1-ethyl-2-methylimidazo[4,5-b]pyridin-5-yl]ethynyl)-1-[(3S,5R)-5-(methoxymethyl)-1-(prop-2-enoyl)pyrrolidin-3-yl]-5-(methylamino)pyrazole-4-carboxamide]	100 to 1000
C=CC(=O)N1C[C@@H](n2nc(C#Cc3cc4ncn(C)c4cc3F)c(C(N)=O)c2NC)C[C@@H]1COC [Example 40, 3-[2-(6-fluoro-1-methyl-1,3-benzodiazol-5-yl)ethynyl]-1-[(3S,5)-5-(methoxymethyl)-1-(prop-2-enoyl)pyrrolidin-3-yl]-5-(methylamino)pyrazole-4-carboxamide]	≤ 100
C=CC(=O)N1C[C@@H](n2nc(C#Cc3c(F)cc4[nH]c(C(F)(F)F)nc4c3F)c(C(N)=O)c2NC)C[C@@H]1COC [Example 46]	≤ 100
C=CC(=O)N1C[C@@H](n2nc(C#Cc3cc4nc(C)n(CC)c4cn3)c(C(N)=O)c2NC)C[C@@H]1COC [Example 48, 3-(2-[3-Ethyl-2-methylimidazo[4,5-c]pyridin-6-yl]ethynyl)-1-[(3S,5R)-5-(methoxymethyl)-1-(prop-2-enoyl)pyrrolidin-3-yl]-5-(methylamino)pyrazole-4-carboxamide]	100 to 1000
C=CC(=O)N1C[C@@H](n2nc(C#Cc3ccn4nccc4n3)c(C(N)=O)c2NC)C[C@@H]1COC [Example 53, 1-[(3S,5R)-5-(Methoxymethyl)-1-(prop-2-enoyl)pyrrolidin-3-yl]-5-(methylamino)-3-(2-[pyrazolo[1,5-a]pyrimidin-5-yl]ethynyl)pyrazole-4-carboxamide]	100 to 1000
C=CC(=O)N1C[C@@H](n2nc(C#Cc3ccn4ccnc4c3)c(C(N)=O)c2NC)C[C@@H]1COC [Example 54, 1-((3S,5R)-1-Acryloyl-5-(methoxymethyl)pyrrolidin-3-yl)-3-(imidazo[1,2-a]pyridin-7-ylethynyl)-5-(methylamino)-1H-pyrazole-4-carboxamide]	≤ 100
C=CC(=O)N1C[C@@H](n2nc(C#Cc3c(F)cc4[nH]c(C5CC5)nc4c3F)c(C(N)=O)c2NC)C[C@@H]1COC [Example 61, 3-[2-(2-Cyclopropyl-4,6-difluoro-1H-1,3-benzodiazol-5-yl)ethynyl]-1-[(3S,5R)-5-(methoxymethyl)-1-(prop-2-enoyl)pyrrolidin-3-yl]-5-(methylamino)pyrazole-4-carboxamide]	≤ 100

Other lines, results leading:

IC50 [nM]	SMILES
100 to 1000	C=CC(=O)N1C[C@@H](n2nc(C#Cc3ccc4ncn(C)c4c3F)c(C(N)=O)c2NC)C[C@@H]1COC [Example 41, 3-[2-(4-fluoro-^-1-methyl-1,3-benzodiazol-5-yl)ethynyl]-1-[(3S,5R)-5-(methoxymethyl)-1-(prop-2-enoyl)pyrrolidin-3-yl]-(methylamino)pyrazole-4-carboxamide]
≤ 100	C=CC(=O)N1C[C@@H](n2nc(C#Cc3ccc4[nH]c(C5CC5)nc4c3)c(C(N)=O)c2NC)C[C@@H]1COC [Example 42, 3-[2-(2-cyclopropyl-1H-1,3-benzodiazol-5-yl)ethynyl]-1-[(3S,5R)-5-(methoxymethyl)-1-(prop-2-enoyl)pyrrolidin-3-yl]-5-(methylamino)pyrazole-4-carboxamide]
≤ 100	C=CC(=O)N1C[C@@H](n2nc(C#Cc3ccc4c(c3)nc(C3CC3)n4C)c(C(N)=O)c2NC)C[C@@H]1COC [Example 43, 3-[2-(2-cyclopropyl-1-methyl-1,3-benzodiazol-5-yl)ethynyl]-1-[(3S,5R)-5-(methoxymethyl)-1-(prop-2-enoyl)pyrrolidin-3-yl]-5-(methylamino)pyrazole-4-carboxamide]
≤ 100	C=CC(=O)N1C[C@@H](n2nc(C#Cc3ccc4c(C)noc4c3)c(C(N)=O)c2NC)C[C@@H]1COC [Example 44, 1-[(3S,5R)-5-(methoxymethyl)-1-(prop-2-enoyl)pyrrolidin-3-yl]-3-[2-(3-methyl-1,2-benzoxazol-6-yl)ethynyl]-5-(methylamino)pyrazole-4-carboxamide]
≤ 100	C=CC(=O)N1C[C@@H](n2nc(C#Cc3c(F)cc4c(nc(C5CC5)n4CC)c3F)c(C(N)=O)c2NC)C[C@@H]1COC [Example 45, 3-[2-(2-cyclopropyl-1-ethyl-4,6-difluoro-1,3-benzodiazol-5-yl)ethynyl]-1-[(3S,5R)-5-(methoxymethyl)-1-(prop-2-enoyl)pyrrolidin-3-yl]-5-(methylamino) pyrazole-4-carboxamide]
≤ 100	C=CC(=O)N1C[C@@H](n2nc(C#Cc3c(F)cc4c(nc(C5CC5)n4C)c3F)c(C(N)=O)c2NC)C[C@@H]1COC [Example 50, 3-[2-(2-Cyclopropyl-4,6-difluoro-1-methyl-1,3-benzodiazol-5-yl)ethynyl]-1-[(3S,5R)-5-(methoxymethyl)-1-(prop-2-enoyl)pyrrolidin-3-yl]-5-(methylamino)pyrazole-4-carboxamide]
≤ 100	C=CC(=O)N1C[C@@H](n2nc(C#Cc3ccc4c(nc(C5CC5)n4C)c3F)c(C(N)=O)c2NC)C[C@@H]1COC [Example 51, 1-((3S,5R)-1-Acryloyl-5-(methoxymethyl)pyrrolidin-3-yl)-3-((2-cyclopropyl-4-fluoro-1-methyl-1H-benzo[d]imidazol-5-yl)ethynyl)-5-(methylamino)-1H-pyrazole-4-carboxamide]
≤ 100	C=CC(=O)N1C[C@@H](n2nc(C#Cc3ccc4cccnc4c3)c(C(N)=O)c2NC)C[C@@H]1COC [Example 52, 1-[(3S,5R)-5-(Methoxymethyl)-1-(prop-2-enoyl)pyrrolidin-3-yl]-5-(methylamino)-3-[2-(quinolin-7-yl)ethynyl]pyrazole-4-carboxamide]
≤ 100	C=CC(=O)N1C[C@@H](n2nc(C#Cc3ccn4nccc4c3)c(C(N)=O)c2NC)C[C@@H]1COC [Example 56, 1-[(3S,5R)-5-(Methoxymethyl)-1-(prop-2-enoyl)pyrrolidin-3-yl]-5-(methylamino)-3-(2-[pyrazolo[1,5-a]pyridin-5-yl]ethynyl)pyrazole-4-carboxamide]
≤ 100	C=CC(=O)N1C[C@@H](n2nc(C#Cc3cc4nc(C5CC5)n(C)c4cc3F)c(C(N)=O)c2NC)C[C@@H]1COC [Example 62, 3-[2-(2-Cyclopropyl-6-fluoro-1-methyl-1,3-benzodiazol-5-yl)ethynyl]-1-[(3S,5R)-5-(methoxymethyl)-1-(prop-2-enoyl)pyrrolidin-3-yl]-5-(methylamino)pyrazole-4-carboxamide]

same assay, conditions: wild type FGFR2 0.06 nM, 100 μM ATP, 80 minutes at room temperature; given as numeric bound

SMILES	IC50 [nM]
C=CC(=O)N1C[C@@H](n2nc(C#Cc3cnc4nccn4c3)c(C(N)=O)c2NC)C[C@@H]1COC [Example 57, 3-(2-[Imidazo[1,2-a]pyrimidin-6-yl]ethynyl)-1-[(3S,5R)-5-(methoxymethyl)-1-(prop-2-enoyl)pyrrolidin-3-yl]-5-(methylamino)pyrazole-4-carboxamide]	> 500
C=CC(=O)N1C[C@@H](n2nc(C#Cc3ccn4ccnc4n3)c(C(N)=O)c2NC)C[C@@H]1COC [Example 58, 3-(2-[Imidazo[1,2-a]pyrimidin-7-yl]ethynyl)-1-[(3S,5R)-5-(methoxymethyl)-1-(prop-2-enoyl)pyrrolidin-3-yl]-5-(methylamino)pyrazole-4-carboxamide]	> 500

Results, then the compound that gave them:

IC50 [nM]	SMILES
> 500	C=CC(=O)N1C[C@@H](n2nc(C#Cc3ccc4nccn4c3)c(C(N)=O)c2NC)C[C@@H]1COC [Example 55, 1-((3S,5R)-1-Acryloyl-5-(methoxymethyl)pyrrolidin-3-yl)-3-(imidazo[1,2-a]pyridin-6-ylethynyl)-5-(methylamino)-1H-pyrazole-4-carboxamide]
> 500	C=CC(=O)N1C[C@@H](n2nc(C#Cc3cc4nc(C5CC5)n(C)c4cn3)c(C(N)=O)c2NC)C[C@@H]1COC [Example 63, 3-(2-[2-Cyclopropyl-3-methylimidazo[4,5-c]pyridin-6-yl]ethynyl)-1-[(3S,5R)-5-(methoxymethyl)-1-(prop-2-enoyl)pyrrolidin-3-yl]-5-(methylamino)pyrazole-4-carboxamide]

From US11345681B1, “Inhibitors of fibroblast growth factor receptor kinases” (Kinnate Biopharma Inc., priority 2020, dated 2022)
